# Tests used:
# Assay type in all cases: in vivo
# [1] = system: undesirable plants of both the monocotyledonous and the dicotyledonous species; assay: Herbicidal activity, general; conditions: 16 pounds per acre
# From the text: All of the 3-substituted compounds of the pyrido [3,2-d]pyrimidine-2,4(1H,3H)-dione and lumazine families made from intermediate amides produced by the method of this invention have an unexpectedly high order of herbicidal activity.
# In using the compound, seeds of the types of plants set forth in Table II were sown in fresh soil. In the preemergence test the soil was sprayed with a solution of the test compound immediately after the seeds were planted, and before any noticeable growth developed. The solution was about a 2 percent by weight solution of the compound in acetone and/or alcohol. The compound was applied at the rate of 16 pounds per acre of soil surface.
# Approximately 3 weeks after spray application, the herbicidal activity of the compound was determined by visual observation of the treated area in comparison with untreated control areas. These observations are reported below in Table II wherein the average activity rating is reported as the percent control of plant growth.
# In the postemergence test the soil and developing plants were sprayed approximately 2 weeks after the seeds were sown. The compound was applied at the rate of 8 pounds per acre from about a 2 percent by weight solution of the test compound in acetone and/or alcohol. The postemergence herbicidal activity was measured in the same way as the preemergence activity; i.e. visual observation approximately 11 days after spraying, and expressed as the percent control of plant growth.
# Cucumber [2] = assay: Preemergence herbicidal activity, % control of plant growth; conditions: for pest or weed control at 17933.6 g/ha: Cucumis sativus, pre-emergence, 504 h, 16 lb/acre, about 3 weeks
# Procedure, shortened: (§1)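 A roughly 2% w/w solution in acetone and/or alcohol is sprayed at 16 lb/acre onto soil directly after seeds are sown, prior to emergence. Around three weeks on, activity is rated visually against untreated areas and given as average percent control.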
# Cheatgrass [3] = assay: as above; conditions: for pest or weed control at 17933.6 g/ha: Bromus tectorum, pre-emergence, 504 h, 16 lb/acre, about 3 weeks
# Procedure, shortened: as §1
# Curled Dock [4] = assay: as above; conditions: for pest or weed control at 17933.6 g/ha: pre-emergence, 504 h, 16 lb/acre, about 3 weeks
# Procedure, shortened: as §1
# Alfalfa [5] = assay: as above; conditions: for pest or weed control at 17933.6 g/ha: Medicago sativa, pre-emergence, 504 h, 16 lb/acre, about 3 weeks
# Procedure, shortened: as §1
# Yellow Rocket [6] = assay: as above; conditions: pre-emergence, 504 h, 16 lb/acre, about 3 weeks
# Procedure, shortened: as §1
# Barnyard Grass [7] = assay: as above; conditions: Echinochloa crus-galli, pre-emergence, 504 h; barnyard grass; 16 lb/acre; about 3 weeks
# Procedure, shortened: as §1
# Lambsquarters [8] = assay: as above; conditions: for pest or weed control at 17933.6 g/ha: Chenopodium album, pre-emergence, 504 h, 16 lb/acre, about 3 weeks
# Procedure, shortened: as §1
# Nutgrass [9] = assay: as above; conditions: pre-emergence, 504 h, 16 lb/acre, about 3 weeks
# Procedure, shortened: as §1
# Wild Oats [10] = assay: as above; conditions: Avena fatua, pre-emergence, 504 h, 16 lb/acre, about 3 weeks
# Procedure, shortened: as §1
# Foxtail [11] = assay: as above; conditions: Setaria, pre-emergence, 504 h, 16 lb/acre, about 3 weeks
# Procedure, shortened: as §1
# Pigweed [12] = assay: as above; conditions: for pest or weed control at 17933.6 g/ha: Amaranthus retroflexus, pre-emergence, 504 h, 16 lb/acre, about 3 weeks
# Procedure, shortened: as §1
# Snapbeans [13] = assay: as above; conditions: for pest or weed control at 17933.6 g/ha: pre-emergence, 504 h, 16 lb/acre, about 3 weeks
# Procedure, shortened: as §1
# Chickweed [14] = assay: as above; conditions: for pest or weed control at 17933.6 g/ha: pre-emergence, 504 h, 16 lb/acre, about 3 weeks
# Procedure, shortened: as §1
# Corn [15] = assay: as above; conditions: for plant injury at 17933.6 g/ha: Zea mays, pre-emergence, 504 h, 16 lb/acre, about 3 weeks
# Procedure, shortened: as §1
# Crabgrass [16] = assay: as above; conditions: for pest or weed control at 17933.6 g/ha: Digitaria sanguinalis, pre-emergence, 504 h, 16 lb/acre, about 3 weeks
# Procedure, shortened: as §1
# Johnsongrass [17] = assay: as above; conditions: Sorghum halepense, pre-emergence, 504 h, 16 lb/acre, about 3 weeks
# Procedure, shortened: as §1
# Velvetleaf [18] = assay: as above; conditions: Abutilon theophrasti, pre-emergence, 504 h, 16 lb/acre, about 3 weeks
# Procedure, shortened: as §1
# Cucumber [19] = assay: Postemergence herbicidal activity, % control of plant growth; conditions: Cucumis sativus, post-emergence, 264 h, 8 lb/acre, about 11 days
# Procedure, shortened: (§2)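 Around two weeks after seeds went in, the compound was sprayed at 8 pounds per acre over soil and developing plants. Results are visual estimates of percent growth control made approximately 11 days after spraying.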
# Cheatgrass [20] = assay: as above; conditions: Bromus tectorum, post-emergence, 264 h, 8 lb/acre, about 11 days
# Procedure, shortened: as §2
# Curled Dock [21] = assay: as above; conditions: post-emergence, 264 h, 8 lb/acre, about 11 days
# Procedure, shortened: as §2
# Alfalfa [22] = assay: as above; conditions: Medicago sativa, post-emergence, 264 h, 8 lb/acre, about 11 days
# Procedure, shortened: as §2
# Yellow Rocket [23] = assay: as above; conditions: post-emergence, 264 h, 8 lb/acre, about 11 days
# Procedure, shortened: as §2
# Barnyard Grass [24] = assay: as above; conditions: Echinochloa crus-galli, post-emergence, 264 h, 8 lb/acre, about 11 days
# Procedure, shortened: as §2
# Lambsquarters [25] = assay: as above; conditions: Chenopodium album, post-emergence, 264 h, 8 lb/acre, about 11 days
# Procedure, shortened: as §2
# Nutgrass [26] = assay: as above; conditions: post-emergence, 264 h, 8 lb/acre, about 11 days
# Procedure, shortened: as §2
# Wild Oats [27] = assay: as above; conditions: Avena fatua, post-emergence, 264 h, 8 lb/acre, about 11 days
# Procedure, shortened: as §2
# Foxtail [28] = assay: as above; conditions: Setaria, post-emergence, 264 h, 8 lb/acre, about 11 days
# Procedure, shortened: as §2
# Pigweed [29] = assay: as above; conditions: Amaranthus retroflexus, post-emergence, 264 h, 8 lb/acre, about 11 days
# Procedure, shortened: as §2
# Snapbeans [30] = assay: as above; conditions: post-emergence, 264 h, 8 lb/acre, about 11 days
# Procedure, shortened: as §2
# Chickweed [31] = assay: as above; conditions: post-emergence, 264 h, 8 lb/acre, about 11 days
# Procedure, shortened: as §2
# Corn [32] = assay: as above; conditions: Zea mays, post-emergence, 264 h, 8 lb/acre, about 11 days
# Procedure, shortened: as §2
# Crabgrass [33] = assay: as above; conditions: Digitaria sanguinalis, post-emergence, 264 h, 8 lb/acre, about 11 days
# Procedure, shortened: as §2
# Johnsongrass [34] = assay: as above; conditions: Sorghum halepense, post-emergence, 264 h, 8 lb/acre, about 11 days
# Procedure, shortened: as §2
# Velvetleaf [35] = assay: as above; conditions: Abutilon theophrasti, post-emergence, 264 h, 8 lb/acre, about 11 days
# Procedure, shortened: as §2
smiles,measurement,setting,value
"CC(C)n1c(=O)[nH]c2cnccc2c1=O [3-isopropyl-pyrido[3,4-d]pyrimidine-2,4(1H,3H)-dione]",herbicidal activity,[1],no appreciable herbicidal activity
"O=c1[nH]c(=O)c2ncccc2[nH]1 [pyrido[3,2-d]pyrimidine-2,4(1H,3H)-dione, reference compound]",pest or weed control at 17933.6 g/ha,Cucumber [2],0%
same,pest or weed control at 17933.6 g/ha,Cheatgrass [3],0%
same,pest or weed control at 17933.6 g/ha,Curled Dock [4],0%
same,pest or weed control at 17933.6 g/ha,Alfalfa [5],0%
same,pest or weed control at 17933.6 g/ha,Yellow Rocket [6],0%
same,pest or weed control at 17933.6 g/ha,Barnyard Grass [7],0%
same,pest or weed control at 17933.6 g/ha,Lambsquarters [8],0%
same,pest or weed control at 17933.6 g/ha,Nutgrass [9],0%
same,pest or weed control at 17933.6 g/ha,Wild Oats [10],0%
same,pest or weed control at 17933.6 g/ha,Foxtail [11],0%
same,pest or weed control at 17933.6 g/ha,Pigweed [12],0%
same,pest or weed control at 17933.6 g/ha,Snapbeans [13],0%
same,pest or weed control at 17933.6 g/ha,Chickweed [14],0%
same,plant injury at 17933.6 g/ha,Corn [15],0%
same,pest or weed control at 17933.6 g/ha,Crabgrass [16],0%
same,pest or weed control at 17933.6 g/ha,Johnsongrass [17],0%
same,pest or weed control at 17933.6 g/ha,Velvetleaf [18],0%
same,pest or weed control at 8966.8 g/ha,Cucumber [19],0%
same,pest or weed control at 8966.8 g/ha,Cheatgrass [20],0%
same,pest or weed control at 8966.8 g/ha,Curled Dock [21],0%
same,pest or weed control at 8966.8 g/ha,Alfalfa [22],0%
same,pest or weed control at 8966.8 g/ha,Yellow Rocket [23],0%
same,pest or weed control at 8966.8 g/ha,Barnyard Grass [24],0%
same,pest or weed control at 8966.8 g/ha,Lambsquarters [25],0%
same,pest or weed control at 8966.8 g/ha,Nutgrass [26],0%
same,pest or weed control at 8966.8 g/ha,Wild Oats [27],0%
same,pest or weed control at 8966.8 g/ha,Foxtail [28],0%
same,pest or weed control at 8966.8 g/ha,Pigweed [29],0%
same,pest or weed control at 8966.8 g/ha,Snapbeans [30],0%
same,pest or weed control at 8966.8 g/ha,Chickweed [31],0%
same,plant injury at 8966.8 g/ha,Corn [32],0%
same,pest or weed control at 8966.8 g/ha,Crabgrass [33],0%
same,pest or weed control at 8966.8 g/ha,Johnsongrass [34],0%
same,pest or weed control at 8966.8 g/ha,Velvetleaf [35],0%
"O=c1[nH]c2cccnc2c(=O)n1Cc1ccccc1 [3-benzyl-pyrido[3,2-d]pyrimidine-[2,4(1H,3H)-dione]",herbicidal activity/control,Cucumber [2]; 16 pounds per acre,no preemergence herbicidal activity
same,pest or weed control at 17933.6 g/ha,Cucumber [2],0%
same,herbicidal activity/control,Cheatgrass [3]; 16 pounds per acre,total preemergence activity
same,pest or weed control at 17933.6 g/ha,Cheatgrass [3],100%
same,herbicidal activity/control,Curled Dock [4]; 16 pounds per acre,total preemergence activity
same,pest or weed control at 17933.6 g/ha,Curled Dock [4],100%
same,herbicidal activity/control,Alfalfa [5]; 16 pounds per acre,total preemergence activity
same,pest or weed control at 17933.6 g/ha,Alfalfa [5],100%
same,pest or weed control at 17933.6 g/ha,Yellow Rocket [6],90%
same,pest or weed control at 17933.6 g/ha,Barnyard Grass [7],90%
same,herbicidal activity/control,Lambsquarters [8]; 16 pounds per acre,total preemergence activity
same,pest or weed control at 17933.6 g/ha,Lambsquarters [8],100%
same,pest or weed control at 17933.6 g/ha,Nutgrass [9],0%
same,pest or weed control at 17933.6 g/ha,Wild Oats [10],30%
same,pest or weed control at 17933.6 g/ha,Foxtail [11],90%
same,herbicidal activity/control,Pigweed [12]; 16 pounds per acre,total preemergence activity
same,pest or weed control at 17933.6 g/ha,Pigweed [12],100%
same,herbicidal activity/control,Snapbeans [13]; 16 pounds per acre,no preemergence herbicidal activity
same,pest or weed control at 17933.6 g/ha,Snapbeans [13],10%
same,herbicidal activity/control,Chickweed [14]; 16 pounds per acre,total preemergence activity
same,pest or weed control at 17933.6 g/ha,Chickweed [14],100%
same,herbicidal activity/control,Corn [15]; 16 pounds per acre,no preemergence herbicidal activity
same,plant injury at 17933.6 g/ha,Corn [15],10%
same,herbicidal activity/control,Crabgrass [16]; 16 pounds per acre,total preemergence activity
same,pest or weed control at 17933.6 g/ha,Crabgrass [16],100%
same,pest or weed control at 17933.6 g/ha,Johnsongrass [17],90%
same,pest or weed control at 17933.6 g/ha,Velvetleaf [18],90%
same,pest or weed control at 8966.8 g/ha,Cucumber [19],10%
same,pest or weed control at 8966.8 g/ha,Cheatgrass [20],0%
same,pest or weed control at 8966.8 g/ha,Curled Dock [21],0%
same,pest or weed control at 8966.8 g/ha,Alfalfa [22],0%
same,pest or weed control at 8966.8 g/ha,Yellow Rocket [23],70%
same,pest or weed control at 8966.8 g/ha,Barnyard Grass [24],0%
same,pest or weed control at 8966.8 g/ha,Lambsquarters [25],60%
same,pest or weed control at 8966.8 g/ha,Nutgrass [26],0%
same,pest or weed control at 8966.8 g/ha,Wild Oats [27],0%
same,pest or weed control at 8966.8 g/ha,Foxtail [28],0%
same,pest or weed control at 8966.8 g/ha,Pigweed [29],100%
same,pest or weed control at 8966.8 g/ha,Snapbeans [30],0%
same,pest or weed control at 8966.8 g/ha,Chickweed [31],100%
same,plant injury at 8966.8 g/ha,Corn [32],0%
same,pest or weed control at 8966.8 g/ha,Crabgrass [33],40%
same,pest or weed control at 8966.8 g/ha,Johnsongrass [34],0%
same,pest or weed control at 8966.8 g/ha,Velvetleaf [35],30%
"O=c1[nH]c2ncccc2c(=O)n1-c1ccccc1 [3-phenyl-pyrido[2,3-d]pyrimidine-2,4(1H,3H)-dione]",herbicidal activity,[1],no appreciable herbicidal activity

# Reference: patent US3960877A, “N-monosubstituted-2,3-pyridinedicarboxamides, and related compounds” (priority 1974, dated 1976)
